The values that follow are results of earlier work, collected in paper PMC7845544 (Frontiers in Pharmacology, 2021).

Molecules are shown by their SMILES.

One data set relates to human FSHR. Also on record: method as in Gerrits et al., 2016. The conditions noted are these: ref Gerrits et al., 2016; read-out: human FSHR-AA EC50; cited from earlier work.
Another data set addresses TSH receptor. Also noted: method as in Gerrits et al., 2016. The conditions noted are these: ref Gerrits et al., 2016, cited from earlier work.
The test system of the next data set is monkeys. Also on record: method as in Gerrits et al., 2016. The conditions noted are these: ref Gerrits et al., 2016, cited from earlier work.
The next data set relates to women. Also on record: method as in Gerrits et al., 2016. The conditions noted are these: up to 40 mg/day; ref Gerrits et al., 2016; cited from earlier work.
Details of data set [1]: method as in Ghobadi et al., 2009. The conditions noted are these: ref Ghobadi et al., 2009; cited from earlier work.

A word on the EC50: it is the concentration needed to bring the measured effect to its halfway point. As for `COc1cc2c(cc1CC(C)C)-c1c(-c3cccs3)cc(C(=O)N(C)C(C)(C)C)n1CC2` [MK-8389], the EC50 in the data set with human FSHR is 4.2 nM. At TSH receptor (read-out: TSH receptor EC50), the EC50 is 340 nM. Further, the TSHR/FSHR in the data set on TSH receptor is 81. Moreover, in the data set on monkeys, the “dose for thyroid follicular cell hypertrophy” value is reported as 23 mg/kg; the “fold separation between ovarian and thyroid stimulation” value is listed as 10 fold. In addition, the “dose required for folliculogenesis” value with monkeys (twice daily) was 2.25 mg/kg. Besides, in the data set with women, the “follicular growth in human phase one study” value was “failed to induce follicular growth”.

Turning to `CCN(CC)CCOc1ccc(C(=C(Cl)c2ccccc2)c2ccccc2)cc1` [clomiphene], in data set [1], the elimination from blood is not below 72 h.
